Results published in ChEMBL document CHEMBL1201862, “PubChem BioAssay data set” (2004).
Active and inactive are the calls of the source.

What was measured:
[1] = biological target: Glucose-6-phosphate 1-dehydrogenase (Homo sapiens, UniProt P11413); assay: inhibition of Homo sapiens G6PD, dose series – biochemical, fluorescence, selectivity assay for P. falciparum G6PD inhibitor project, dose response (AID 504792); format: functional
[2] = biological target: T1, Carboxy-terminal domain RNA polymerase II polypeptide A small phosphatase 1 (Homo sapiens, UniProt Q9GZU7); assay: CTDSP1 inhibitors, concentration-response, biochemical, absorbance readout, ultra-high-throughput screen actives (AID 540297); format: functional
T1 sequence (Q9GZU7 whole entry): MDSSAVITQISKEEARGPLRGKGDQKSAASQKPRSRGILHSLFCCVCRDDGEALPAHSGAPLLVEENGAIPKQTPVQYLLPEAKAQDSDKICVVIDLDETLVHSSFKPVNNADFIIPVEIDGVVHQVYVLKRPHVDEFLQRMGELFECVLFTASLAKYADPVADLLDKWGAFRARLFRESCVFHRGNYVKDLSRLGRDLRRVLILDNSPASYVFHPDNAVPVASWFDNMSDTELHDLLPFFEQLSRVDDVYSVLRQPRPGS

[3] = NIH-3T3 fibroblast cytotoxicity, dose response, cytotoxicity control, cell-based, fluorescence, Alamar Blue, secondary assay (AID 2327); format: functional;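 note: NIH-3T3 mouse fibroblasts cultured with fluconazole at 8 µg/mL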
[4] = fluconazole-exposed Candida albicans growth modulators – fluorescence, retest, confirmation (AID 2467); format: functional, cell-based
[5] = P. falciparum Dd2 growth inhibitors, dose response, SYBR Green, cherry-picked samples (AID 1159567); format: functional, cell-based
INS1 = assay: INS-1E survival protection against cytokine death – cell-based, luminescence, retest, dose response (AID 449756); format: functional; settings: Rattus norvegicus, INS1;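 note: cell death triggered by IL-1 beta plus TNF-alpha plus IFN-gamma mixture; protective hits raise ATP signal compared with cytokine alone wells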
[6] = viability of uninfected HEp-2 cells – cell-based, HTS, cytotoxicity control for RSV inhibitor project, dose response (AID 2410); format: functional; settings: human respiratory syncytial virus
Genome polyprotein = Genome polyprotein (dengue virus type 2, UniProt P29990); assay: flavivirus cap methylation enzyme inhibition – biochemical, confirmation dose response, primary screen (AID 588689); format: functional
Genome polyprotein, sequence (P29990 2492-3391 limits assumed): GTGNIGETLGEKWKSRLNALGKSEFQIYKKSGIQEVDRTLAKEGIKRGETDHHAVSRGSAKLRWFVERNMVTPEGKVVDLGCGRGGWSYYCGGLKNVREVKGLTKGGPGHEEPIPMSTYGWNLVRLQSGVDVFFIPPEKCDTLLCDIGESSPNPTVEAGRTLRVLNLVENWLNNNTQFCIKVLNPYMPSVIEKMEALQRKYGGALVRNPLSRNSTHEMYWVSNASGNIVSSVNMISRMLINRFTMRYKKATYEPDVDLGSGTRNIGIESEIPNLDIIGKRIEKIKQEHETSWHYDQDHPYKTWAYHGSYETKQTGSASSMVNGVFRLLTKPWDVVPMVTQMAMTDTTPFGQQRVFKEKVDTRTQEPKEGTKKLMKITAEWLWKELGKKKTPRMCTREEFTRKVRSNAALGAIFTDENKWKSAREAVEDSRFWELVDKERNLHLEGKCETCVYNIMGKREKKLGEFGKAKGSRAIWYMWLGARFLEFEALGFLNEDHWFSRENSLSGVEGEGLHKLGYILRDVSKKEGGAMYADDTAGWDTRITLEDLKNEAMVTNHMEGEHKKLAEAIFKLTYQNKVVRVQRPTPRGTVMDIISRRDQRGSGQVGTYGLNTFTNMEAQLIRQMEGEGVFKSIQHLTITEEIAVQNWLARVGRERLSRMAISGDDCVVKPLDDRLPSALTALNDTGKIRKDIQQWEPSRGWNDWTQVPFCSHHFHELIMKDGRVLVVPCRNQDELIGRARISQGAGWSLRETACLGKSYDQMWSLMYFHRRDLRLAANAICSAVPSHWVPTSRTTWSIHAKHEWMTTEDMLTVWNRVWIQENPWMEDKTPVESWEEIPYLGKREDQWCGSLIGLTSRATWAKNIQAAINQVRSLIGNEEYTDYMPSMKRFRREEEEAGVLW

[7] = biological target: T2, RNA-binding protein pos-1 (Caenorhabditis elegans, UniProt G5EF15); assay: disruptors of C. elegans POS-1 RNA interaction – biochemical, fluorescence polarization, dose response (AID 1964);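 note: purified POS-1 fused to maltose binding protein made in E. coli; potency of compounds blocking POS-1 binding to fluorescent RNA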
T2 sequence (G5EF15 whole entry): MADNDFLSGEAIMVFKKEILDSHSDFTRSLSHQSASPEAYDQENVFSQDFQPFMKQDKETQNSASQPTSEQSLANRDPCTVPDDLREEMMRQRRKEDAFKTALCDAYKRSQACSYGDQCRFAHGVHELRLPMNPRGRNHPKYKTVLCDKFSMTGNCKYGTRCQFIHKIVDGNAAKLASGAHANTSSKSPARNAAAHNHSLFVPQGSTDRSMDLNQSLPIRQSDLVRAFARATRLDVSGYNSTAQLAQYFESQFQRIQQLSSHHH

[8] = biological target: T3, Zinc finger protein mex-5 (Caenorhabditis elegans, UniProt Q9XUB2); assay: potency of MEX-5 RNA-binding blockers – biochemical, C. elegans, fluorescence polarization, dose response (AID 1960)
T3 sequence (Q9XUB2 whole entry): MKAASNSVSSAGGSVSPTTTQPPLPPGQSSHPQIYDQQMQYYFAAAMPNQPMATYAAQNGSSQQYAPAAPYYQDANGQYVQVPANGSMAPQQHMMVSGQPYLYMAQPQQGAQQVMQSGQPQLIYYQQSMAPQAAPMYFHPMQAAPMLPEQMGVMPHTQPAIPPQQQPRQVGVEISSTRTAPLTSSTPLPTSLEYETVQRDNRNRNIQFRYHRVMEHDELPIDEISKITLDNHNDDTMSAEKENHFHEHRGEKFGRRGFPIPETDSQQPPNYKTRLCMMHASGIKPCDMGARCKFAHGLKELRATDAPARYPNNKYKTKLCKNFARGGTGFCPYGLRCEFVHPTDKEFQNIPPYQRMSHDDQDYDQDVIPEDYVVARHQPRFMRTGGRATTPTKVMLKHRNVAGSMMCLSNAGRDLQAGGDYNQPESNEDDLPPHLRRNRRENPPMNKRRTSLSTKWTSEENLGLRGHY

cells = format: functional
[9] = biological target: T4, Heat shock factor protein 1 (Mus musculus, UniProt P38532); assay: enhancement of HSF1-driven luciferase signal – cell-based, NIH3T3, luminescence, dose retest, confirmation (AID 435004); format: functional;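 note: stress induced by proteasome inhibitor MG132 added 30 min after compound; luciferase reporter driven by HSF1 response element in NIH3T3 cells; actives raise luminescence as potentiators of the MG132 stress response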
T4 sequence (P38532 whole entry): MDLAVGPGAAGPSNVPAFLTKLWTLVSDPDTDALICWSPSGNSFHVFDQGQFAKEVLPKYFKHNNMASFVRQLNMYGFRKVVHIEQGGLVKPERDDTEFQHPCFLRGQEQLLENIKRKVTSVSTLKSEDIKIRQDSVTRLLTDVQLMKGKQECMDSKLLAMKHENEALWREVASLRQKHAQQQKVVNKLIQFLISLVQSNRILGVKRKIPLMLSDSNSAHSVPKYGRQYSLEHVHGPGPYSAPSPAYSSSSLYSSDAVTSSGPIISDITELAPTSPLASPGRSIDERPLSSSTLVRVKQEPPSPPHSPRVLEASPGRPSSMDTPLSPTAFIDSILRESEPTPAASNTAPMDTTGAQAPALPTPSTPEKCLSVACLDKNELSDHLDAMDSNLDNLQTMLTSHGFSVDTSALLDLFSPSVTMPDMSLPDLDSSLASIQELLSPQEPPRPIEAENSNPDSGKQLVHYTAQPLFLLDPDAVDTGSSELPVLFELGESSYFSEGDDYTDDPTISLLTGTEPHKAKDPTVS

Glucose-6-phosphate 1-dehydrogenase, sequence (P11413 whole entry, the tested form may be a part): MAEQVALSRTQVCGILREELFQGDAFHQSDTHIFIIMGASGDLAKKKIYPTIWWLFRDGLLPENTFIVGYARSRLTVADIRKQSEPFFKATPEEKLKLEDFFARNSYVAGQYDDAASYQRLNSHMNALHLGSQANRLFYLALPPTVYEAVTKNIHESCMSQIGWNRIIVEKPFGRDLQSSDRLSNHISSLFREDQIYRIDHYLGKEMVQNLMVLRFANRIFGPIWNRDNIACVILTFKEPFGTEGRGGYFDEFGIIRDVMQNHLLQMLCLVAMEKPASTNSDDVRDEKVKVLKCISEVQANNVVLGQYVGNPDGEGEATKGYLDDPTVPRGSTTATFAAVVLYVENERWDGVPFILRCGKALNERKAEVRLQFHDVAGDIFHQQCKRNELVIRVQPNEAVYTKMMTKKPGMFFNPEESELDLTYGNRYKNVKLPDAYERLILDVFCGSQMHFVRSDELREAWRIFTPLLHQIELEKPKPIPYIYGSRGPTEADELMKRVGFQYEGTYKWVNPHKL

With `COc1cc(NCCCn2ccc(NC(=O)OCc3ccccc3)nc2=O)cc(OC)c1OC` the IC50 [1] was > 80 µM (inactive).

With `O=C(Nc1cccc(S(=O)(=O)NC2=NCCCCC2)c1)C1COc2ccccc2O1` (stereo not given) the IC50 [2] was 5.75 µM (active).

With `COc1cccc(C(=O)C2CCCN(Cc3cccc4c3OCO4)C2)c1` (stereo not given) the EC50 [3] was > 160 µM (inactive) and the EC50 [4] was > 38 µM (not active).

In the case of `CCCC#Cc1ccc2c(c1)[C@@H]1[C@@H](CCN1S(=O)(=O)c1ccccc1C)[C@@H](CO)N2`, the AC50 [5] is reported as 7.51 µM (active).

In the case of `C/C(=N/Nc1ccc(C)cc1)C1(C)N(O)C(C)(C)C(c2ccco2)=[N+]1[O-]` (stereo not given), the EC50 [3] is reported as 66.1 µM (inconclusive) and the EC50 [4] is reported as > 38 µM (not active).

For `CCN(CC)c1ccc(/N=C/c2ccc([N+](=O)[O-])o2)cc1`, the AC50 (INS1) was 43.9 µM (active), the EC50 [3] was > 150 µM (inactive) and the EC50 [4] was > 38 µM (not active).

In the case of `CC(C)(C)C(=O)O/N=C1/C(=O)N(c2ccccc2)c2ccccc21`, the IC50 [2] is reported as 7.51 µM (active) and the CC50 [6] is reported as 26.5 µM (active).

In the case of `O=C(O)c1ccc2c(c1Nc1ccccc1)C(=O)c1ccccc1C2=O`, the IC50 (Genome polyprotein) is reported as > 100 µM (active).

With `Cc1cc(C(=O)O)ccc1-n1c(C)cc(C=C2C(=O)c3ccccc3C2=O)c1C` the EC50 [7] was > 300 µM (not active), the IC50 [1] was > 80 µM (inactive) and the EC50 [8] was > 300 µM (not active).

With `N=c1oc2ccccc2cc1C(=O)NC1CCCCCC1` the IC50 (cells) was > 50 µM (active).

For `Cc1ccc(OC(=O)c2sc3ncn(C)c(=O)c3c2C)cc1`, the IC50 (cells) was 15.2 µM (active).

In the case of `N#Cc1cccc(-c2ccc3c(c2)[C@@H]2[C@@H](CCN2Cc2cncnc2)[C@H](CO)N3)c1`, the AC50 [5] is reported as 6.32 µM (active).

For `COc1ccccc1C#Cc1ccc([C@@H]2[C@H](C#N)N(C(=O)C3CCCC3)[C@H]2CO)cc1`, the AC50 [5] was 5.17 µM (active).

With `O=C1N=C(Nc2ccc(Cl)cc2)/C(=C/c2ccco2)S1` the IC50 [2] was 1.86 µM (active).

For `COc1ccc(C(O)(C(=O)NNc2ccc(C)cc2)c2cccs2)cc1` (stereo not given), the EC50 [9] was > 260 µM (inactive), the EC50 [3] was > 160 µM (inactive) and the EC50 [4] was > 38 µM (not active).

For `C[N+]1(C)CC2([N+](=O)[O-])CC=C(Oc3ccccc3)C([N+](=O)[O-])(C2)C1` (stereo not given), the IC50 [2] was 6.82 µM (active).
